Measured values reported in ChEMBL document CHEMBL1151757, “Synthesis, radiosynthesis, and biological evaluation of fluorine-18-labeled 2beta-carbo(fluoroalkoxy)-3beta-(3'-((Z)-2-haloethenyl)phenyl)nortropanes: candidate radioligands for in vivo imaging of the serotonin transporter with positron emission tomography” (J Med Chem, 2008).

What was measured:
[1] = Ratio of drug uptake in pons to cerebellum in anesthetized cynomolgus monkey after 18.5 mins postinjection; format: ADME, organism-based, Macaca fascicularis; settings: in vivo
[2] = Ratio of drug uptake in pons to cerebellum in anesthetized cynomolgus monkey after 125 mins postinjection; format: ADME, organism-based, Macaca fascicularis; settings: in vivo
[3] = Ratio of drug uptake in pons to cerebellum in anesthetized cynomolgus monkey after 175 mins postinjection; format: ADME, organism-based, Macaca fascicularis; settings: in vivo
[4] = Ratio of drug uptake in pons to cerebellum in anesthetized cynomolgus monkey after 225 mins postinjection; format: ADME, organism-based, Macaca fascicularis; settings: in vivo, 3.75 h
[5] = Ratio of drug uptake in pons to cerebellum in anesthetized cynomolgus monkey after 185 mins postinjection; format: ADME, organism-based, Macaca fascicularis; settings: in vivo
[6] = Ratio of drug uptake in medulla to cerebellum in anesthetized cynomolgus monkey after 12.5 mins postinjection; format: ADME, organism-based, Macaca fascicularis; settings: in vivo
[7] = Ratio of drug uptake in medulla to cerebellum in anesthetized cynomolgus monkey after 95 mins postinjection; format: ADME, organism-based, Macaca fascicularis; settings: in vivo
[8] = Ratio of drug uptake in medulla to cerebellum in anesthetized cynomolgus monkey after 155 mins postinjection; format: ADME, organism-based, Macaca fascicularis; settings: in vivo
[9] = Drug uptake in anesthetized cynomolgus monkey brain occipital lobe after 3.5 mins postinjection; format: ADME, organism-based, Macaca fascicularis; settings: in vivo
[10] = Drug uptake in anesthetized cynomolgus monkey brain occipital lobe after 6.5 mins postinjection; format: ADME, organism-based, Macaca fascicularis; set-up: unit not given here; settings: in vivo
[11] = Drug uptake in anesthetized cynomolgus monkey brain occipital lobe after 85 mins postinjection; format: ADME, organism-based, Macaca fascicularis; settings: in vivo
[12] = Drug uptake in anesthetized cynomolgus monkey brain occipital lobe after 115 mins postinjection; format: ADME, organism-based, Macaca fascicularis; settings: in vivo
[13] = Drug uptake in anesthetized cynomolgus monkey brain occipital lobe after 135 mins postinjection; format: ADME, organism-based, Macaca fascicularis; settings: in vivo, 2.25 h
[14] = Drug uptake in anesthetized cynomolgus monkey brain occipital lobe after 165 mins postinjection; format: ADME, organism-based, Macaca fascicularis; settings: in vivo, 2.75 h
[15] = Drug uptake in anesthetized cynomolgus monkey brain frontal lobe after 45 mins postinjection; format: ADME, organism-based, Macaca fascicularis; settings: in vivo, 0.75 h
[16] = Drug uptake in anesthetized cynomolgus monkey brain frontal lobe after 125 mins postinjection; format: ADME, organism-based, Macaca fascicularis; settings: in vivo
[17] = Ratio of drug uptake in midbrain to cerebellum in anesthetized cynomolgus monkey after 225 mins postinjection; format: ADME, organism-based, Macaca fascicularis; settings: in vivo, 3.75 h
[18] = Ratio of drug uptake in midbrain to cerebellum in anesthetized cynomolgus monkey after 235 mins postinjection; format: ADME, organism-based, Macaca fascicularis; settings: in vivo
[19] = Ratio of drug uptake in pons to cerebellum in anesthetized cynomolgus monkey after 6.5 mins postinjection; format: ADME, organism-based, Macaca fascicularis; settings: in vivo
[20] = Ratio of drug uptake in occipital lobe to cerebellum in anesthetized cynomolgus monkey after 135 mins postinjection; format: ADME, organism-based, Macaca fascicularis; settings: in vivo, 2.25 h
[21] = tested on: Putamen; assay: Drug uptake in anesthetized cynomolgus monkey brain putamen after 125 mins postinjection; format: ADME, organism-based, Macaca fascicularis; settings: in vivo
[22] = tested on: Putamen; assay: Drug uptake in anesthetized cynomolgus monkey brain putamen after 155 mins postinjection; format: ADME, organism-based, Macaca fascicularis; settings: in vivo
[23] = tested on: Putamen; assay: Drug uptake in anesthetized cynomolgus monkey brain putamen after 215 mins postinjection; format: ADME, organism-based, Macaca fascicularis; settings: in vivo
[24] = tested on: Putamen; assay: Drug uptake in anesthetized cynomolgus monkey brain putamen after 225 mins postinjection; format: ADME, organism-based, Macaca fascicularis; settings: in vivo, 3.75 h
[25] = Ratio of drug uptake in occipital lobe to cerebellum in anesthetized cynomolgus monkey after 235 mins postinjection; format: ADME, organism-based, Macaca fascicularis; settings: in vivo
[26] = Ratio of drug uptake in frontal lobe to cerebellum in anesthetized cynomolgus monkey after 75 mins postinjection; format: ADME, organism-based, Macaca fascicularis; settings: in vivo, 1.25 h
[27] = tested on: Midbrain; assay: Drug uptake in anesthetized cynomolgus monkey brain midbrain after 135 mins postinjection; format: ADME, organism-based, Macaca fascicularis; settings: in vivo, 2.25 h
[28] = tested on: Midbrain; assay: Drug uptake in anesthetized cynomolgus monkey brain midbrain after 235 mins postinjection; format: ADME, organism-based, Macaca fascicularis; settings: in vivo
[29] = tested on: Pons; assay: Drug uptake in anesthetized cynomolgus monkey brain pons after 12.5 mins postinjection; format: ADME, organism-based, Macaca fascicularis; settings: in vivo
[30] = tested on: Pons; assay: Drug uptake in anesthetized cynomolgus monkey brain pons after 15.5 mins postinjection; format: ADME, organism-based, Macaca fascicularis; settings: in vivo
[31] = tested on: Pons; assay: Drug uptake in anesthetized cynomolgus monkey brain pons after 185 mins postinjection; format: ADME, organism-based, Macaca fascicularis; settings: in vivo
[32] = Drug uptake in anesthetized cynomolgus monkey brain occipital lobe after 205 mins postinjection; format: ADME, organism-based, Macaca fascicularis; settings: in vivo
[33] = Drug uptake in anesthetized cynomolgus monkey brain frontal lobe after 195 mins postinjection; format: ADME, organism-based, Macaca fascicularis; settings: in vivo, 3.25 h
[34] = Ratio of drug uptake in frontal lobe to cerebellum in anesthetized cynomolgus monkey after 235 mins postinjection; format: ADME, organism-based, Macaca fascicularis; settings: in vivo
[35] = tested on: Caudate; assay: Drug uptake in anesthetized cynomolgus monkey brain caudate after 185 mins postinjection; format: ADME, organism-based, Macaca fascicularis, Caudate nucleus; settings: in vivo
[36] = tested on: Caudate; assay: Drug uptake in anesthetized cynomolgus monkey brain caudate after 195 mins postinjection; format: ADME, organism-based, Macaca fascicularis, Caudate nucleus; settings: in vivo, 3.25 h
[37] = tested on: Caudate; assay: Drug uptake in anesthetized cynomolgus monkey brain caudate after 205 mins postinjection; format: ADME, organism-based, Macaca fascicularis, Caudate nucleus; settings: in vivo
[38] = tested on: Putamen; assay: Drug uptake in anesthetized cynomolgus monkey brain putamen after 205 mins postinjection; format: ADME, organism-based, Macaca fascicularis; settings: in vivo
[39] = tested on: Pons; assay: Drug uptake in anesthetized cynomolgus monkey brain pons after 115 mins postinjection; format: ADME, organism-based, Macaca fascicularis; settings: in vivo
[40] = tested on: Pons; assay: Drug uptake in anesthetized cynomolgus monkey brain pons after 135 mins postinjection; format: ADME, organism-based, Macaca fascicularis; settings: in vivo, 2.25 h
[41] = tested on: Medulla; assay: Drug uptake in anesthetized cynomolgus monkey brain medulla after 0.5 mins postinjection; format: ADME, organism-based, Macaca fascicularis; settings: in vivo
[42] = tested on: Medulla; assay: Drug uptake in anesthetized cynomolgus monkey brain medulla after 6.5 mins postinjection; format: ADME, organism-based, Macaca fascicularis; settings: in vivo
[43] = tested on: Medulla; assay: Drug uptake in anesthetized cynomolgus monkey brain medulla after 35 mins postinjection; format: ADME, organism-based, Macaca fascicularis; settings: in vivo
[44] = tested on: Medulla; assay: Drug uptake in anesthetized cynomolgus monkey brain medulla after 65 mins postinjection; format: ADME, organism-based, Macaca fascicularis; settings: in vivo
[45] = Ratio of drug uptake in putamen to cerebellum in anesthetized cynomolgus monkey after 45 mins postinjection; format: ADME, organism-based, Macaca fascicularis; settings: in vivo, 0.75 h
[46] = Ratio of drug uptake in putamen to cerebellum in anesthetized cynomolgus monkey after 165 mins postinjection; format: ADME, organism-based, Macaca fascicularis; settings: in vivo, 2.75 h
[47] = Drug uptake in anesthetized cynomolgus monkey brain cerebellum after 75 mins postinjection; format: ADME, organism-based, Macaca fascicularis; settings: in vivo, 1.25 h
[48] = Drug uptake in anesthetized cynomolgus monkey brain cerebellum after 85 mins postinjection; format: ADME, organism-based, Macaca fascicularis; settings: in vivo
[49] = Drug uptake in anesthetized cynomolgus monkey brain cerebellum after 95 mins postinjection; format: ADME, organism-based, Macaca fascicularis; settings: in vivo
[50] = Drug uptake in anesthetized cynomolgus monkey brain cerebellum after 175 mins postinjection; format: ADME, organism-based, Macaca fascicularis; settings: in vivo
[51] = Drug uptake in anesthetized cynomolgus monkey brain cerebellum after 235 mins postinjection; format: ADME, organism-based, Macaca fascicularis; settings: in vivo
[52] = Ratio of drug uptake in putamen to cerebellum in anesthetized cynomolgus monkey after 235 mins postinjection; format: ADME, organism-based, Macaca fascicularis; settings: in vivo
[53] = Ratio of drug uptake in thalamus to cerebellum in anesthetized cynomolgus monkey after 9.5 mins postinjection; format: ADME, organism-based, Macaca fascicularis; settings: in vivo
[54] = tested on: Caudate; assay: Drug uptake in anesthetized cynomolgus monkey brain caudate after 4.5 mins postinjection; format: ADME, organism-based, Macaca fascicularis, Caudate nucleus; settings: in vivo, 0.075 h
[55] = tested on: Caudate; assay: Drug uptake in anesthetized cynomolgus monkey brain caudate after 175 mins postinjection; format: ADME, organism-based, Macaca fascicularis, Caudate nucleus; settings: in vivo
[56] = Ratio of drug uptake in occipital lobe to cerebellum in anesthetized cynomolgus monkey after 4.5 mins postinjection; format: ADME, organism-based, Macaca fascicularis; settings: in vivo, 0.075 h
[57] = Ratio of drug uptake in occipital lobe to cerebellum in anesthetized cynomolgus monkey after 18.5 mins postinjection; format: ADME, organism-based, Macaca fascicularis; settings: in vivo
[58] = tested on: Thalamus; assay: Drug uptake in anesthetized cynomolgus monkey brain thalamus after 2.5 mins postinjection; format: ADME, organism-based, Macaca fascicularis; set-up: unit not given here; settings: in vivo
[59] = tested on: Putamen; assay: Drug uptake in anesthetized cynomolgus monkey brain putamen after 4.5 mins postinjection; format: ADME, organism-based, Macaca fascicularis; set-up: unit not given here; settings: in vivo, 0.075 h
[60] = tested on: Thalamus; assay: Drug uptake in anesthetized cynomolgus monkey brain thalamus after 145 mins postinjection; format: ADME, organism-based, Macaca fascicularis; set-up: unit not given here; settings: in vivo
[61] = tested on: Thalamus; assay: Drug uptake in anesthetized cynomolgus monkey brain thalamus after 165 mins postinjection; format: ADME, organism-based, Macaca fascicularis; set-up: unit not given here; settings: in vivo, 2.75 h
[62] = tested on: Midbrain; assay: Drug uptake in anesthetized cynomolgus monkey brain midbrain after 18.5 mins postinjection; format: ADME, organism-based, Macaca fascicularis; set-up: unit not given here; settings: in vivo
[63] = tested on: Midbrain; assay: Drug uptake in anesthetized cynomolgus monkey brain midbrain after 22.5 mins postinjection; format: ADME, organism-based, Macaca fascicularis; set-up: unit not given here; settings: in vivo, 0.375 h
[64] = Ratio of drug uptake in midbrain to cerebellum in anesthetized cynomolgus monkey after 2.5 mins postinjection; format: ADME, organism-based, Macaca fascicularis; settings: in vivo
[65] = Ratio of drug uptake in midbrain to cerebellum in anesthetized cynomolgus monkey after 27.5 mins postinjection; format: ADME, organism-based, Macaca fascicularis; settings: in vivo
[66] = Ratio of drug uptake in midbrain to cerebellum in anesthetized cynomolgus monkey after 125 mins postinjection; format: ADME, organism-based, Macaca fascicularis; settings: in vivo

O=C(OCCC[18F])C1C2CCC(CC1c1cccc(/C=C\I)c1)N2 (stereo unspecified)
Ratio [1]: 0.9 | Ratio [2]: 1.4 | Ratio [3]: 1.4 | Ratio [4]: 1.7 | Ratio [5]: 1.5 | Ratio [6]: 1 | Ratio [7]: 1.4 | Ratio [8]: 1.8 | Drug uptake [9]: 1.29 | Drug uptake [10]: 2.83 | Drug uptake [11]: 3.52 | Drug uptake [12]: 3.09 | Drug uptake [13]: 2.82 | Drug uptake [14]: 2.59 | Drug uptake [15]: 2.84 | Drug uptake [16]: 2.54 | Ratio [17]: 2 | Ratio [18]: 1.9 | Ratio [19]: 0.7 | Ratio [20]: 1.1 | Drug uptake [21]: 4.31 | Drug uptake [22]: 3.8 | Drug uptake [23]: 3.13 | Drug uptake [24]: 3.05 | Ratio [25]: 1 | Ratio [26]: 0.7 | Drug uptake [27]: 4.45 | Drug uptake [28]: 3.57 | Drug uptake [29]: 3.49 | Drug uptake [30]: 3.62 | Drug uptake [31]: 3.31 | Drug uptake [32]: 2.3 | Drug uptake [33]: 1.96 | Ratio [34]: 0.9 | Drug uptake [35]: 2.82 | Drug uptake [36]: 2.74 | Drug uptake [37]: 2.65 | Drug uptake [38]: 3.31 | Drug uptake [39]: 3.98 | Drug uptake [40]: 4.08 | Drug uptake [41]: 0.01 | Drug uptake [42]: 3.75 | Drug uptake [43]: 5.04 | Drug uptake [44]: 4.96 | Ratio [45]: 1.1 | Ratio [46]: 1.6 | Drug uptake [47]: 3.87 | Drug uptake [48]: 3.6 | Drug uptake [49]: 3.46 | Drug uptake [50]: 2.37 | Drug uptake [51]: 1.93 | Ratio [52]: 1.6 | Ratio [53]: 0.8 | Drug uptake [54]: 1.55 | Drug uptake [55]: 2.83 | Ratio [56]: 0.8 | Ratio [57]: 0.8 | Drug uptake [58]: 0.8 | Drug uptake [59]: 2.31 | Drug uptake [60]: 3.93 | Drug uptake [61]: 3.67 | Drug uptake [62]: 4.65 | Drug uptake [63]: 4.55 | Ratio [64]: 0.9 | Ratio [65]: 1 | Ratio [66]: 1.6
